# In ChEMBL document CHEMBL1139531, “Synthesis and biological evaluation of dihydromotuporamine derivatives in cells containing active polyamine transporters” (J Med Chem, 2005):
# Tests used:
# CHO = assay: Inhibition of chinese hamster ovary cell proliferation, high polyamine transporter activity; format: functional, cell-based; conditions: Cricetulus griseus
# CHO-MG [1] = assay: Inhibition of MGBG-resistant CHO-MG cell proliferation, no polyamine transporter activity; format: functional, cell-based; conditions: Cricetulus griseus
# CHO-MG [2] = assay: Relative inhibition of CHO-MG and chinese hamster ovary cell proliferation; format: functional
# L1210 [3] = assay: Affinity for cellular polyamine transporter system as inhibition [14C]spermidine uptake in L1210 cells; format: functional, cell-based, Mus musculus
# L1210 [4] = assay: Inhibition of murine L1210 leukemia cell proliferation, high polyamine transporter activity; format: functional, cell-based; conditions: Mus musculus
Structure (SMILES),IC50 (L1210 [4]),IC50 (CHO),IC50 (CHO-MG [1]),Ratio (CHO-MG [2]),Ki (L1210 [3])
Cl.Cl.Cl.NCCCNCCCNCc1c2ccccc2cc2ccccc12,1.8 µM,1.9 µM,3.4 µM,1.8,33.4 µM
CCN(CCCCNCCCCN)Cc1c2ccccc2cc2ccccc12.Cl.Cl.Cl,22.2 µM,22.2 µM,21.9 µM,1,24.4 µM
Cl.Cl.Cl.NCCCCNCCCCNCc1c2ccccc2cc2ccccc12,,0.45 µM,,148,

# The remaining molecules from weak to strong by IC50 (L1210 [4]), led by results:
IC50 (L1210 [4]),Structure (SMILES),IC50 (CHO),IC50 (CHO-MG [1]),Ratio (CHO-MG [2]),Ki (L1210 [3])
18.5 µM,NCCCCNCCCCN1CCCCCCCCCCCCCC1,30 µM,28.2 µM,1,6.2 µM
3 µM,NCCCNCCCN1CCCCCCCCCCCCCC1,10.5 µM,10 µM,1,9.9 µM
